Common to all, as to assay type: cell-based, human
Test [1] has as its system Bulk PBMNC. Description: Morphologically identified dendritic cells in bulk PBMNC cultures with non-cytokine additives. As to conditions: for % DC: Day 7; for TOTAL # OF DC: Day 7, projected in culture. On the procedure: (§1) Cytofunnels were attached to microscope slides. 50,000 to 100,000 cells were removed from each culture and resuspended in approximately 100 to 200 ul of PBS-CMF. Slides were placed in the Cytospin® centrifuge and spun at 100 rpm for 4 min. Cytofunnels were removed from the slides and the slides were air dried for 1 minute. Ten drops of Wright-Geimsa stain were placed onto each slide and allowed to fix for 1 to 2 minutes. Ten drops of water were added to each slide and allowed to sit for 2 to 4 minutes. The slides were rinsed and air dried.
(§2) Reading of Cytospin Slides: Slides were read under phase contrast microscopy, 40× and 60× oil magnification. One hundred cells were identified and characterized morphologically as either dendritic cells or non-dendritic cells (lymphocytes and monocyte, or CD34+-derived cells in those cases). Digital images were taken using a color monitor and color video printer.
(§3) Culture of Bulk PBMNC: PBMNC cells were cultured in X-VIVO 15™ supplemented with 2 mM L- glutamine. Cultures were initiated at 5×^05 cells/ml in PL2417 gas-permeable containers (20 ml). GM-CSF and IL-4 were added to the cultures at final concentrations of 50 ng/ml and 1000 U/ml or non-cytokine additives such as Vitamin D3 at 2.5 uM, Vitamin E at 0.1%, Linoleic Acid at 5 ug/ml, or Ca++ Ionophore at 10 mM. Addition and subtraction of cells, media, and growth factors to and from PL2417 gas-permeable containers was accomplished by spiking a Sampling Site Coupler into the sample port of the container followed by use of syringes and needles. Cells were cultured in a 5% CO2, ambient O2, 37° C. humidified incubator for 7 days.
(§4) Cytospin slide preparation, Wright-Geimsa and immunohistochemical staining of the cultured cells were conducted as described in Example 1 and 2 above. Mixed lymphocyte reactions (MLR's) were setup using T cells (responders) and dendritic cell enriched cultures (stimulators) from bulk PBMNC cultures, as described above in Example 1.

The test system of test [2] is Bulk PBMNC. In words: Concentration, viability and total cells of bulk PBMNC cultured with non-cytokine additives in PL2417. The settings on record: Day 7, PL2417 container, X-VIVO 15. On the procedure: as §3
The next set of experiments evaluated only 4 of the non-cytokine additives. These 4 were determined to have the highest ability to induce DC generation from PBMNC. The 4 non-cytokine additives examined were Vitamin D3, Vitamin E, Ca^++ Ionophore, and Linoleic Acid. These additives were compared to GM-CSF/IL-4. Bulk PBMNC were initiated at 5×10^5 cells/ml in X-VIVO 15™ using PL2417 gas-permeable containers (20 ml per container).

For test [3], the system named is Bulk PBMNC. In words: Flow cytometry phenotype of bulk PBMNC cultures with non-cytokine additives. As to conditions: Day 7. On the procedure:
as §3
Cultured cells were phenotyped as described in Example 1 above for the following markers: […]

Test [4] relates to T cells. Description: Allogeneic MLR with bulk PBMNC cultures grown with non-cytokine additives. Here is the method:
MLR's were setup using T cells as responders and dendritic cell enriched cultures as antigen presenters. Sheep red blood cells were prepared and used to erythrocyte rosette T cells from a MNC preparation as described in “Current Protocols in Immunology”, John Wiley & Sons Inc, 1995. Vol. 2, 7.2.1-7.2.4. Erythrocyte+(E+ ) T cells were resuspended to 1×10^6 cells/ml in RPMI 1640/10% FCS. Dendritic cells were resuspended to 1×10^6 cells/ml in RPMI 1640/10% FCS and mitomycin C was added at 25 ug/ml to inhibit proliferation. The tubes were incubated at 37° C. for 30 min. then washed 3 times with PBS-CMF/1% HA. […] […] The appropriate control wells were also prepared. Plates were incubated for 4 or 5 days at 37° C.
Each well was pulsed with 1 uCi of ^3H-thymidine in RPMI 1640/10% FCS. Plates were incubated overnight at 37° C.
Plates were harvested onto glass fiber filter strips using a cell harvester. Discs were placed into scintillation vials containing scintillation cocktail and samples were counted using a beta radiation counter.
as §4
The functional capacity of cultured cells to induce T cell proliferation was measured in an allogeneic MLR. […] At the greatest ratio of 1:100, the differences in capacity to induce T cell proliferation is marginal between the GM-CSF/IL-4 cultured cells and the non-cytofine additive cultured cells.

For test [5], the system named is Bulk PBMNC. In words: S100+ cells in bulk PBMNC cultures with non-cytokine additives. The settings on record: for % S100+: Day 7; for TOTAL # OF S100+: Day 7, projected in culture. On the procedure: (§5) Immunocytochemical staining: PBS (phosphate buffered saline) was made by dissolving 5 PBS tablets into 1000 ml millipore water. Cytospin slides were soaked in PBS. Endogenous peroxidase activity was blocked by treating slides with hydrogen peroxide/PBS (2 ml 30% H2O2+30 ml PBS) for 10 min. Slides were rinsed with PBS one time. Non-specific binding sites were blocked by incubating with normal serum matching source of secondary antibody (i.e. if secondary antibody is biotinylated goat-anti-mouse, used normal goat serum) at room temp. for 15 min. in a humidified environment. Excess serum was shaken from slides and placed 100 ul of primary antibody on slide, making sure cells are covered with liquid and incubated in humidified environment, room temp, for one hour. Negative control slides were incubated with normal serum for this hour. Slides were rinsed 3 times with PBS. Slides were incubated with biotinylated antibody reactive against the primary antibody (i.e. if primary antibody is mouse-anti-human, use a biotinylated goat-anti-mouse antibody) for 1 hour in humidity. Slides were rinsed 3 times with PBS. Slides were incubated with streptavidin-peroxidase, 2 drops/slide, for 30 min. in humidity. Slides were rinsed 3 times with PBS.
(§6) Chromagen solution was made with 5 ml millipore water+2 drops of chromagen buffer+1 drop of concentrated chromagen+1 drop of substrate, and 4-5 drops were added to each slide. […] Slides were counterstained with hematoxylin for about 5 min, or until cell nuclei were stained purple. Cells were rinsed with tap water and allowed to air dry. Slides were covered with crystal mount and oven dried at 80 degrees for 15 min. Slides were allowed to cool, then coversliped with mounting medium.
as §3, §4
The S100 protein is a nerve cell protein that has been associated with dendritic cells. In Table 47, at day 7 of culture, the highest percent of S100+ cells was present in the GM-CSF/IL-4 culture (13%).

The test system of test [6] is adherent PBMNC. In words: Cell counts and viability of plastic adherent cells cultured with non-cytokine additives in polystyrene plates. More on the design: % VIABLE: concentration or dose not given beside the values. As to conditions: for % VIABLE: propidium iodide. On the procedure:
Viability Determination: Prior to acquisition, 5 ul propidium iodide (PI) was added to each tube for use as a viability check. The cells were vortexed and acquired within 10 min of PI addition.
(§7) Enrichment and Culture of Adherent Cells Using Polystyrene Tissue Culture Plates: PBMNC were resuspended in culture media (X-VIVO 15™+10% autologous serum) at 2×10^6 cells/ml. Cells were placed into 48 well polystyrene tissue culture plates […] and incubated for 2 hours in a 5% CO2, ambient O2, 37° C. humidified incubator. Non-adherent cells were removed from the plates then wells were rinsed with X-VIVO 15™ containing no serum. Cells remaining in the wells were adherent cells. These cells were cultured by adding 2 ml of X-VIVO 15™ to each well plus GM-CSF and IL-4 at final concentrations of 50 ng/ml and 1000 U/ml or the following: cAMP at 0.5 mM, dibutyryl cAMP at 0.1 mM, NaF at 0.25 mM, theophylline at 0.5 mM, PGE at 0.1 mM, Vitamin D3 at 2.5 uM, Vitamin E at 0.1%, Retinoic Acid at 10^−6 M, PMA at 1 pM, Linoleic Acid at 5 ug/ml, or Ca^++ Ionophore at 10 mM. Furthermore, cells were also cultured with the above non-cytokine additives plus GM-CSF at 50 ng/ml. Cells were cultured in a 5% CO2, ambient O2, 37° C. humidified incubator for 7 days.
(§8) Results: In the set of experiments using plastic adherent cells grown in polystyrene tissue culture plates, a Day 0 analysis of the cells was not performed. However, these cultures were analyzed for the presence of DC on days 4 and 7. Analysis perfomed were cell counts, viability via propidium iodide, morphology under Wright-Geimsa staining, and immunohistochemical staining using an anti-S100 antibody.

Test [7] concerns adherent PBMNC. Description: DC morphology (Wright-Geimsa) of plastic adherent cells cultured with non-cytokine additives. Here is the method: as §1, §2, §7, §4, §8
Test [8] has as its system adherent PBMNC. In words: S100 immunohistochemistry of plastic adherent cells cultured with non-cytokine additives. On the procedure: as §5, with “Endogenous peroxidase activity was blocked by treating slides with hydrogen peroxide/PBS (2 ml 30% H2O2+30 ml PBS) for 10 min.” left out
as §6, §7, §4, §8

Setting [9] is: Day 7, Cell Culture:T cell Ratio 1:1.
Setting [10] is: Day 7, Cell Culture:T cell Ratio 1:10.
[11] abbreviates: Day 7, Cell Culture:T cell Ratio 1:100.

Each structure is given as a SMILES string.

Consider `Cc1c(C)c2c(c(C)c1O)CCC(C)(CCCC(C)CCCC(C)CCCC(C)C)O2` (mixture of isomers) [VIT E], for which, in test [1], the “% DC” value is reported as 4.00% and the “TOTAL # OF DC” value turned out to be 2.82E+05. In test [2], the CELLS/ML came to 1.87E + 06 cells/ml, the “TOTAL CELLS” value is reported as 7.52E + 06 and the VIABILITY was 82.41%. For the same compound, in test [3], the “Percent of Phenotype in Culture: CD1a-PE” value is on record as 0.08%, the “Percent of Phenotype in Culture: CD14-PE” value is 0.73%, the “Percent of Phenotype in Culture: CD80-PE” value is 1.97% and the “Percent of Phenotype in Culture: CD86-PE” value came out at 2.75%. The “Allogeneic MLR. Increase Over Background Proliferation” value in test [4] (setting [9]) is 6.3. Further, the “Allogeneic MLR. Increase Over Background Proliferation” value in test [4] (setting [10]) was determined as 2.6. In test [4] (setting [11]), the “Allogeneic MLR. Increase Over Background Proliferation” value is 1.7. Moreover, in test [5], the “% S100+” value is 8.00% and the “TOTAL # OF S100+” value is 6.01E + 05.

`CNc1ccc2oc(CC3OC4(CCC3C)OC(C(C)C(=O)c3ccc[nH]3)C(C)CC4C)nc2c1C(=O)O` (stereo not drawn) [Ca ++ Iono] showed a CELLS/ML in test [2] of 2.22E + 06 cells/ml. The “TOTAL CELLS” value in test [2] was found to be 8.29E + 06; in test [6] (Day 4, without GM-CSF), 1.69E + 05; in test [6] (Day 7, with GM-CSF present), 1.05E + 05. Moreover, the VIABILITY in test [2] is recorded as 83.72%. The “% VIABLE” value in test [6] (Day 4, without GM-CSF) is listed as 74.04%; in test [6] (Day 7, with GM-CSF present), 82.69%. The “% DC” value in test [7] (Day 4, without GM-CSF) is 2.50%; in test [7] (Day 7, with GM-CSF present), 4.50%. Besides, the “% S100+” value is recorded as 7.50% in test [5]; 17.00% in test [8] (Day 4, without GM-CSF); 26.50% in test [8] (Day 7, with GM-CSF present). Also, the “TOTAL # OF S100+” value in test [5] amounted to 6.17E + 05.

Turning to `CCCCC/C=C\C/C=C\CCCCCCCC(=O)O` [Linoleio Acid], in test [2], the “TOTAL CELLS” value worked out at 9.18E + 06 and the VIABILITY is 87.77%. Further, in test [5], the “% S100+” value stood at 8.50% and the “TOTAL # OF S100+” value came to 7.75E + 05.

For the compound `C=C1CCC(O)CC1=CC=C1CCCC2(C)C1CCC2C(C)CCCC(C)C` (stereo not drawn) [VIT D3], in test [1], the “% DC” value is given as 6.50% and the “TOTAL # OF DC” value turned out to be 5.12E+05. Further, in test [2], the CELLS/ML was 2.11E + 06 cells/ml, the “TOTAL CELLS” value came to 8.04E + 06 and the VIABILITY is 84.51%. In test [3], the “Percent of Phenotype in Culture: CD1a-PE” value was 0.10%, the “Percent of Phenotype in Culture: CD14-PE” value came out at 0.53%, the “Percent of Phenotype in Culture: CD80-PE” value came out at 2.65% and the “Percent of Phenotype in Culture: CD86-PE” value is on record as 2.62%. The “Allogeneic MLR. Increase Over Background Proliferation” value in test [4] (setting [9]) is on record as 6.9. In test [4] (setting [10]), the “Allogeneic MLR. Increase Over Background Proliferation” value is recorded as 2.7. For the same compound, the “Allogeneic MLR. Increase Over Background Proliferation” value in test [4] (setting [11]) is given as 1.4. Moreover, in test [5], the “% S100+” value came out at 5.00% and the “TOTAL # OF S100+” value is 4.16E + 05.
